Holding throughout (assay type): cell-based
One experiment has as its target T1, CFTR ΔF508 mutant (Homo sapiens, UniProt P13569, DEL508-508).
T1 construct: expressed in transfected cells; host or cells: CFBE41o- cells, adenoviral transduction
The experiment can be described thus: YFP-halide influx assay for the CFTR-ΔF508 mutation (CFBE41o- cells). The conditions noted are these: forskolin 10.67 μM; for EC50: from (1−F/F0) vs concentration plot. The gist of the method:
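CFBE41o- cells transduced with adenovirus expressing CFTR ΔF508 and halide-sensitive YFP H148Q/I152L/F47L, then held 24 h at 27° C or with a CFTR modulator 24 h at 37° C. Iodide-induced quench recorded 2 min; EC50 from (1−F/F0) at 36 s versus concentration.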

The next experiment has as its target T2, CFTR G551D mutant (Homo sapiens, UniProt P13569, G551D).
T2 construct: expressed in transfected cells; host or cells: HEK293 cells, reverse transfection with plasmids
The experiment can be described thus: YFP-halide influx assay for the CFTR-G551D mutation (HEK293 cells). The conditions noted are these: forskolin 10.67 μM. The gist of the method:
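HEK293 cells reverse-transfected with CFTR G551D and halide-sensitive YFP (H148Q/I152L/F47L), expressed 24 h at 37 °C. YFP fluorescence quenching recorded for 7 s after I⁻ injection. Response = 1−F/F0; EC50 derived from 1−F/F0 vs compound concentration.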

The target of the next experiment is T3, CFTR G551D/ΔF508 (Homo sapiens, UniProt P13569, G551D).
T3 construct: host or cells: primary human bronchial epithelial cells from CF patients heterozygous G551D/ΔF508, no corrector pre-treatment
T3 sequence (P13569 whole entry F508del/G551D): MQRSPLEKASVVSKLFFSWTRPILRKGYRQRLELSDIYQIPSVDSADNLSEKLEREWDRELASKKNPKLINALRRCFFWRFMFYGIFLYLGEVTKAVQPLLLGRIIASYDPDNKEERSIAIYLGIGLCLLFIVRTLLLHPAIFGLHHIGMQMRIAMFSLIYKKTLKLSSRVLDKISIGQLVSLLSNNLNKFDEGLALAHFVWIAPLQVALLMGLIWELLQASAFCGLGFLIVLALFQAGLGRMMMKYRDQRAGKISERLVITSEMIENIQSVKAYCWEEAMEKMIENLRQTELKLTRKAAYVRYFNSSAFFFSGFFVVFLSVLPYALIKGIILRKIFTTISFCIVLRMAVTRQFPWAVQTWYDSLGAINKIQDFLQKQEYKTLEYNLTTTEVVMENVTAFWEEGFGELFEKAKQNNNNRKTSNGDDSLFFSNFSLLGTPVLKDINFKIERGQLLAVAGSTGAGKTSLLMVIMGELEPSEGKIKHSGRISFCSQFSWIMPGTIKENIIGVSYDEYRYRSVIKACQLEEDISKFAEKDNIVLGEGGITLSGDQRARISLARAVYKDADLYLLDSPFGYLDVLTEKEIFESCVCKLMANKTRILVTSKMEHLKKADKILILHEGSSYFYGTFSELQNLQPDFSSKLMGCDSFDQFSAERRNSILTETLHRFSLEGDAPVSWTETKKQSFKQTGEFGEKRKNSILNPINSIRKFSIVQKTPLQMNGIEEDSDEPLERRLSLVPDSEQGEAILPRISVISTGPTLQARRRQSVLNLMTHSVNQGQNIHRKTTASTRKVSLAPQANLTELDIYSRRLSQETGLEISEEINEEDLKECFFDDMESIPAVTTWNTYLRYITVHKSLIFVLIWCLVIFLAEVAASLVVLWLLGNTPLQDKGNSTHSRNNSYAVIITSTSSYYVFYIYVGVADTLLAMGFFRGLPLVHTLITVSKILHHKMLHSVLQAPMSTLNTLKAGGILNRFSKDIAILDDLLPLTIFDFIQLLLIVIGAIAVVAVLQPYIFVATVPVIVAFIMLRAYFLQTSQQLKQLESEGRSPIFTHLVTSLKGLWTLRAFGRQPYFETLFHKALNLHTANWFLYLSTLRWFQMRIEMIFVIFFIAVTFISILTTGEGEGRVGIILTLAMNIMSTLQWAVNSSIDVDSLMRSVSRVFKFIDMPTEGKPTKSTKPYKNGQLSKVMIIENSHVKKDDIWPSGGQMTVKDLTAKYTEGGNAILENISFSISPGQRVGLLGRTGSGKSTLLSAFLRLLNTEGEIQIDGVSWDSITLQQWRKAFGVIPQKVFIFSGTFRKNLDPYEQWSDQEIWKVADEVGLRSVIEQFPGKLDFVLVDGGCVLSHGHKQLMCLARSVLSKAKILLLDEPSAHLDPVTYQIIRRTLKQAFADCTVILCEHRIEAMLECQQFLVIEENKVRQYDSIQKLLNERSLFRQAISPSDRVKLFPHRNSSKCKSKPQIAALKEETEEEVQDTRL
Kind of experiment: TECC assay, primary bronchial epithelial cells, CFTR G551D/ΔF508. The settings on record: primary bronchial epithelial cells heterozygous G551D/ΔF508, acute mode, increase in Isc after forskolin. On the procedure:
(§1) The TECC (Tranepithelial Clamp Circuit, EP-design) assay measures the functionality of the cystic fibrosis Transmembrane Conductance regulator (CFTR) by measuring the short circuit current (Isc) generated over the basolateral and apical membrane of lung epithelial cells. In TECC the transepithelial potential PD and transepithelial resistance (Rt) are measured in an open circuit and transformed to Isc using Ohm's law. 24 Wells can be measured simultaneously allowing a higher throughput compared to Ussing chambers.
(§2) For this purpose, bronchial epithelial cells isolated from CF patients homozygous for the CFTR ΔF508 mutation (hAEC-CF, Epithelix) are plated on type IV collagen-coated Transwell® supports (Costar). Human airway epithelia are generated by provision of an air-liquid interface for 21 days to form well-differentiated polarized cultures that resemble in vivo pseudo-stratified ciliated epithelium (Fulcher, M. L., Gabriel, S., Burns, K. A., Yankaskas, J. R., Randell, S. H., 2005. Well-differentiated human airway epithelial cell cultures. Methods Mol. Med. 107, 183-206). In the case of the homozygous ΔF508 CFTR samples, the differentiated cells are treated with 3 μM VX809 (2626 South Loop West, Suite 225, Houston, Tex. 77054 USA, Cat n# S1565) to allow sufficient expression of properly folded CFTR protein on the membrane (48 hours basolateral treatment and 24 hours apical treatment), prior to electrophysiological recordings. For heterozygous G551D/ΔF508, differentiated cells are used as such for the recordings.
(§3) Information on the compounds can be retrieved on the homozygous ΔF508 CFTR samples looking at increased CFTR activity when compounds are added in an acute mode or in a chronic mode. On G551D/ΔF508 CFTR heterozygous samples compounds are added in an acute mode to the differentiated cells.
(§4) For the acute mode, for electrophysiological recording, the human airway epithelia are mounted in the TECC heating plate for electrophysiological measurement and kept at 37° C. The epithelia are bathed in a NaCl-Ringer solution (120 mM NaCl, 25 mM NaHCO3, 1.2 mM CaCl2, 1.2 mM MgCl2, 0.8 mM KH2PO4, 0.8 mM K2HPO4, pH 7.4, 5 mM glucose) on both the basolateral and apical sides. Apical amiloride is used to inhibit the endogenous ENaC currents while forkolin is applied on both apical and basolateral side to stimulate CFTR. After forskolin triggering, compounds are added on both sides to test their potential for increasing CFTR gating. Measurements are done during a 20 minute timeframe with recordings every 2 minutes. The increase in Isc is used as a measure for the increased CFTR activity, EC50 values can be generated by measuring impact of different concentrations of compound on Isc on primary cells, for this purpose each transwell is treated with a different compound concentration. Inh-172, an inhibitor specific for CFTR, is used to test the specificity of the tested compounds.
When subjected to this protocol, the following values were obtained. The difference between ΔIsc measured as DMSO (baseline), and the ΔIsc measured with the compound tested.

For another experiment, the target named is T4, CFTR ΔF508 (Homo sapiens, UniProt P13569, DEL508-508).
T4 construct: host or cells: primary human bronchial epithelial cells from CF patients homozygous for ΔF508, pre-treated with VX809
T4 sequence (P13569 with tags, fused parts or gaps DEL508-508): as the sequence (P13569 whole entry F508del/G551D) above, with D550G counted along it
Kind of experiment: TECC assay, primary bronchial epithelial cells, CFTR ΔF508. The settings on record: primary bronchial epithelial cells of CF patients homozygous for CFTR ΔF508, treated with 3 μM VX809, increase in Isc after forskolin. The method, then:
as §1, §2, §3, §4
For the chronic mode, the differentiated cells are treated with 3 μM VX809 (2626 South Loop West, Suite 225, Houston, Tex. 77054 USA, Cat n# S1565) and potentiator compounds at different concentrations (48 hours basolateral treatment and 24 hours apical treatment), prior to electrophysiological recordings. For electrophysiological recording, the human airway epithelia are mounted in the TECC heating plate for electrophysiological measurement and kept at 37° C. The epithelia are bathed in a NaCl-Ringer solution (120 mM NaCl, 25 mM NaHCO3, 1.2 mM CaCl2, 1.2 mM MgCl2, 0.8 mM KH2PO4, 0.8 mM K2HPO4, pH 7.4, 5 mM glucose) on both the basolateral and apical sides. Apical amiloride is used to inhibit the endogenous ENaC currents while forkolin is applied on both apical and basolateral side to stimulate CFTR. Measurements are done during a 20 minute timeframe with recordings every 2 minutes. […]

A further experiment has as its target T5, CFTR-R117H (Homo sapiens, UniProt P13569, R117H).
T5 construct: expressed in transfected cells
Kind of experiment: YFP-halide influx assay for the CFTR-R117H. The gist of the method: (§5)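 HEK293 cells reverse-transfected with a CFTR mutant and YFP H148Q/I152L/F47L halide sensor, expressed 24 h at 37° C. Fluorescence quenching followed for 7 s after I⁻ injection; activity expressed as 1−F/F0, with EC50 fitted from 1−F/F0 versus compound concentration.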

Another experiment addresses T6, CFTR-G1349D (Homo sapiens, UniProt P13569, G1349D).
T6 construct: expressed in transfected cells
Kind of experiment: YFP-halide influx assay for the CFTR-G1349D. The gist of the method: as §5

The target in another experiment is T7, CFTR-G178R (Homo sapiens, UniProt P13569, G178R).
T7 construct: expressed in transfected cells
T7 sequence (P13569 whole entry G178R): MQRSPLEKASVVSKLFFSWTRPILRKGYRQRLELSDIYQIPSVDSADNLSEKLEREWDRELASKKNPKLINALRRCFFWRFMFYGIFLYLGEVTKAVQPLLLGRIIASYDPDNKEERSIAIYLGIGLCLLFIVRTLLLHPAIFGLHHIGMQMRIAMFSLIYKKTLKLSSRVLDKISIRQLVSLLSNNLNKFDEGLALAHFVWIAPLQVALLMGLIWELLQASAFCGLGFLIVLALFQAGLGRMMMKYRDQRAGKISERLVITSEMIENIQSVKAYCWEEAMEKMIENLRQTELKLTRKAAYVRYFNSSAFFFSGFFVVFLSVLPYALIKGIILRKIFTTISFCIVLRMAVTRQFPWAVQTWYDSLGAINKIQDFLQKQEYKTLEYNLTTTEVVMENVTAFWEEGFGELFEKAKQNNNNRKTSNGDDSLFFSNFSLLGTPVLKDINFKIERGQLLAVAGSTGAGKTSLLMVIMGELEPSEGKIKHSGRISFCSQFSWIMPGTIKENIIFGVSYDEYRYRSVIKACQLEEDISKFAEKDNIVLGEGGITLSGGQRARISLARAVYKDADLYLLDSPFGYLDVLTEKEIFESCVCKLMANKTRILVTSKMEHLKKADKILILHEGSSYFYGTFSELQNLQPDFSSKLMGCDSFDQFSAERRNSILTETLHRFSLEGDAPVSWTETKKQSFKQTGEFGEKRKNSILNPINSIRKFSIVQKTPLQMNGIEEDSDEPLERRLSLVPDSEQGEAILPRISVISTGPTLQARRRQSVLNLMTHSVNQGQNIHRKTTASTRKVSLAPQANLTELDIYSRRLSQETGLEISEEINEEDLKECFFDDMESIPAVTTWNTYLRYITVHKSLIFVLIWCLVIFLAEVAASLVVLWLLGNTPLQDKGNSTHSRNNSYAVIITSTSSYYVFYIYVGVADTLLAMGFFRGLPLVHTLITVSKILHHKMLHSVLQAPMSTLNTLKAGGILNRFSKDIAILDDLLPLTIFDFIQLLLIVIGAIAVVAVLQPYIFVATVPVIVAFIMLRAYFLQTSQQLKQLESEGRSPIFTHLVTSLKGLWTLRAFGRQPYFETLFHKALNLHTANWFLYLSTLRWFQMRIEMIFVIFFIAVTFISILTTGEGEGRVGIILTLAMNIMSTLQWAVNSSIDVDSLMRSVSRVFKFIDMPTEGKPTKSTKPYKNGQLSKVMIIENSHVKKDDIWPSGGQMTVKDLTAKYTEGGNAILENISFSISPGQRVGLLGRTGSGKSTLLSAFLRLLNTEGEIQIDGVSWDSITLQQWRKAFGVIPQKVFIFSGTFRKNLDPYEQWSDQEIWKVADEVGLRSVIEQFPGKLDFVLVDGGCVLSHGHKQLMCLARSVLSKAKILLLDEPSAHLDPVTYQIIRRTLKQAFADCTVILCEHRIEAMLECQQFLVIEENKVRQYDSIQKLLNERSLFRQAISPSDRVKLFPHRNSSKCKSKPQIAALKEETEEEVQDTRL
Kind of experiment: YFP-halide influx assay for the CFTR-G178R. The gist of the method:
as §5

A further experiment deals with T8, CFTR-S549N (Homo sapiens, UniProt P13569, S549N).
T8 construct: expressed in transfected cells
T8 sequence (P13569 whole entry S549N): as the sequence (P13569 whole entry G178R) above, with R178G, S549N counted along it
Kind of experiment: YFP-halide influx assay for the CFTR-S549N. On the set-up: % Activation: concentration or dose not given beside the values. The gist of the method: as §5

SMILES strings stand for the structures.

The record followed here is US10047051B2, “Substituted pyridines and method of use” (AbbVie S.á{acute over (.)}r.l., priority 2015, dated 2018).

T1 sequence (P13569 with tags, fused parts or gaps DEL508-508): as the sequence (P13569 whole entry F508del/G551D) above, with D550G counted along it
T2 sequence (P13569 whole entry G551D): as the sequence (P13569 whole entry G178R) above, with R178G, G551D counted along it
T5 sequence (P13569 whole entry R117H): as the sequence (P13569 whole entry G178R) above, with R117H, R178G counted along it
T6 sequence (P13569 whole entry G1349D): as the sequence (P13569 whole entry G178R) above, with R178G, G1349D counted along it

In the case of `Nc1cc(S(=O)(=O)c2ccc(OC(F)(F)F)cc2)cnc1C(=O)NCCC(O)C(F)(F)F` (stereo not shown) [Compound 52, 3-amino-N-(4,4,4-trifluoro-3-hydroxybutyl)-5-{[4-(trifluoromethoxy)phenyl]sulfonyl}pyridine-2-carboxamide], the “% Activation” value stood at 96.6% at CFTR ΔF508 mutant and 48.8% at CFTR G551D mutant. The EC50 was 8 nM on CFTR ΔF508 mutant, 458 nM on CFTR G551D mutant, 461 nM at CFTR G551D/ΔF508 and 38.3 nM on CFTR ΔF508.
Take `CC(C)OCC(O)CNC(=O)c1ncc(S(=O)(=O)c2ccc(C(F)(F)F)cc2)cc1N` (stereo not shown) [Compound 92, 3-amino-N-[2-hydroxy-3-(propan-2-yloxy)propyl]-5-{[4-(trifluoromethyl)phenyl]sulfonyl}pyridine-2-carboxamide]: the “% Activation” value was found to be 94.77% on CFTR-R117H; 118.5% on CFTR ΔF508 mutant; 79.0% on CFTR G551D mutant; 91.24% on CFTR-G1349D; 104.9% at CFTR-G178R; 98.96% on CFTR-S549N. For the same compound, the EC50 on CFTR-R117H worked out at 97.7 nM; on CFTR ΔF508 mutant it was 7.2 nM; at CFTR G551D mutant, 210 nM; on CFTR G551D/ΔF508, 144 nM; on CFTR-G1349D it was 30.6 nM; at CFTR-G178R, 145 nM. On CFTR-S549N, this compound returned an EC50 of 131 nM.
